Reference: patent US20080175927A1, “METHOD FOR PREVENTING PLANT DISEASES” (priority 2005, published 2008)
Marks after values point to notes of the source that are not given here.

Assays:
[1] = test system: Sphaerotheca aphanis var. aphanis; experiment: Preventive test against strawberry powdery mildew, disease incidence rate; assay type: in vivo; conditions: for PR (prevention rate): 7 days after treatment; for DIR B (disease incident rate 7 days after treatment), I: replicate I; for DIR B (disease incident rate 7 days after treatment), II: replicate II; for DIR B (disease incident rate 7 days after treatment), III: replicate III
Procedure: To measure prevention effect against powdery mildew of extract of Coptis Rhizoma, Phellodendron amurense, Sanguniaria canadensis and Chelidonuum majus var. asiaticum and berberine and its derivative, we performed a preventive test agaist strawberry powdery mildew resulted from infection of Sphaerotheca aphanis var. aphanis using the standard extract obtained by Example 1 or berberine and derivative thereof. The above extract (30 mL) obtained from 10 g of fresh plant materials was dissolved in 200 μg/ml of Tween 20 solution. Final concentration of berberine and derivatives thereof was 400 μg/ml. Negative control was prepared by adding 250 μg/ml of Tween 20 in distilled water. As a positive control reagent, 30% solution of Rifzol wettable powder (Rifzol W P, Aventis Corp Science, Korea) is used and the Rifzol solution was diluted 1:4000 and treated with amount of 75 μg/ml which is common packing concentration.
In house condition of sandy-loamy soil, disease incidence rate was determined 7 days after treatment of the above mentioned reagents compared to one of non-treatment control and the test was repeated 3 times by randomized Block Design.
Before treatment of the reagents, the disease incidence rate of strawberry powdery mildew was 34.1%. The disease incidence rate is defined as percentage of disease developed plants among total investigated plants.
We investigated preventive effects of standard forms of berberine chloride, berberine iodide and berberine bromide and the standard extract obtained by Example 1 against strawberry powdery mildew at various concentrations according to the method of Example 4. […] When the freeze-dried standard extract obtained by Example 1 was used at concentration of at least 1 μg/ml or preferably 10 μg/ml, it prevented strawberry powdery mildew resulted from an infection of Sphaerotheca aphanis var. aphanis. From the above effect, the present inventors confirmed that the standard extract could substitute for synthetic chemical pesticides.

glomellera cingurata = experiment: Paper disk method, growth inhibition by TLC-purified berberine and derivatives; assay type: cell-based; set-up: key: ++: strong inhibition; +: moderate inhibition; −: no inhibition; conditions: purified from TLC
From the text: (§1) To confirm antimicrobial activity of berberine and derivative thereof, we collected TLC bands of berberine and derivative thereof and investigated antimicrobial activity of berberine and derivative thereof against known plant pathogens using paper disk method (Ericsson, H., Hogman, C & Wickman. K. 1954, Scandinavian Journal of Clinical Laboratory Investigation 6, Suppl. 11:21-26). […] Therefore, the result of the aforementioned HPLC analysis, ^1H NMR analysis and antimicrobial activity, the active antimicrobial compound exisisting in the extract of Coptis Rhizoma, Phellodendron genus plant, Sanguniaria canadensis, and Chelidonuum majus var. asiaticum was identified as berberine or derivatives thereof.

damping-off of cucumber = experiment: as above; assay type: cell-based, Pythium ultimum; set-up: key: ++: strong inhibition; +: moderate inhibition; −: no inhibition; conditions: purified from TLC
From the text: as §1

[2] = test system: gray mold rot of strawberry; experiment: as above; assay type: cell-based, Botrytis cinerea; set-up: key: ++: strong inhibition; +: moderate inhibition; −: no inhibition; conditions: purified from TLC
From the text: as §1

[3] = extracts 30 mL from 10 g plant, berberine salts 400 μg/ml, Rifzol 75 μg/ml
[4] = mean of I-III, extracts 30 mL from 10 g plant, berberine salts 400 μg/ml, Rifzol 75 μg/ml, negative control 19.0

Row | Compound | PR (prevention rate) ([1]; 1 μg/ml) | DIR B (disease incident rate 7 days after treatment), MV (mean value) ([1]; 1 μg/ml, control 35.3) | DIR B (disease incident rate 7 days after treatment), I ([1]; 1 μg/ml) | DIR B (disease incident rate 7 days after treatment), II ([1]; 1 μg/ml) | DIR B (disease incident rate 7 days after treatment), III ([1]; 1 μg/ml) | PR (prevention rate) ([1]; 10 μg/ml) | DIR B (disease incident rate 7 days after treatment), MV (mean value) ([1]; 10 μg/ml, control 35.3) | DIR B (disease incident rate 7 days after treatment), I ([1]; 10 μg/ml) | DIR B (disease incident rate 7 days after treatment), II ([1]; 10 μg/ml) | DIR B (disease incident rate 7 days after treatment), III ([1]; 10 μg/ml) | PR (prevention rate) ([1]; 100 μg/ml) | DIR B (disease incident rate 7 days after treatment), MV (mean value) ([1]; 100 μg/ml, control 35.3) | DIR B (disease incident rate 7 days after treatment), I ([1]; 100 μg/ml) | DIR B (disease incident rate 7 days after treatment), II ([1]; 100 μg/ml) | DIR B (disease incident rate 7 days after treatment), III ([1]; 100 μg/ml) | PR (prevention rate) ([1]; 300 μg/ml) | DIR B (disease incident rate 7 days after treatment), MV (mean value) ([1]; 300 μg/ml, control 35.3) | DIR B (disease incident rate 7 days after treatment), I ([1]; 300 μg/ml) | DIR B (disease incident rate 7 days after treatment), II ([1]; 300 μg/ml) | DIR B (disease incident rate 7 days after treatment), III ([1]; 300 μg/ml) | also measured
1 | COc1ccc2cc3[n+](cc2c1OC)CCc1cc2c(cc1-3)OCO2.[Br-] [berberine bromine, berberine bromide] | 12.5% | 30.9% | 29.6% | 27.6% | 35.4% | 47.3% | 18.6% | 13.5% | 17.6% | 24.8% | 61.5% | 13.6% | 13.2% | 11.7% | 15.8% | 71.7% | 10.0% | 8.9% | 12.9% | 8.3% | PR (prevention rate) ([1]; 1000 μg/ml): 78.8%; DIR B (disease incident rate 7 days after treatment), MV (mean value) ([1]; 1000 μg/ml, control 35.3): 7.5%; DIR B (disease incident rate 7 days after treatment), I ([1]; 1000 μg/ml): 5.9%; DIR B (disease incident rate 7 days after treatment), II ([1]; 1000 μg/ml): 9.4%; DIR B (disease incident rate 7 days after treatment), III ([1]; 1000 μg/ml): 7.2%; PR (prevention rate) [1, 3]: 66.8%; DIR B (disease incident rate 7 days after treatment), MV (mean value) [1, 4]: 6.3%; DIR B (disease incident rate 7 days after treatment), I [1, 3]: 5.2%; DIR B (disease incident rate 7 days after treatment), II [1, 3]: 6.1%; DIR B (disease incident rate 7 days after treatment), III [1, 3]: 6.1%; Growth inhibition, glomellera cingurata (glomellera cingurata): +; Growth inhibition, damping-off of cucumber (damping-off of cucumber): +; Growth inhibition, gray mold rot of strawberry [2]: +
2 | COc1ccc2cc3[n+](cc2c1OC)CCc1cc2c(cc1-3)OCO2 [berberine chloride] | 12.2% | 31.0% | 30.2% | 30.8% | 32.1% | 38.2% | 21.8% | 23.4% | 22.1% | 19.9% | 73.7% | 9.3% | 8.2% | 7.7% | 12.1% | 77.3% | 8.0% | 5.2% | 8.5% | 10.3% | PR (prevention rate) ([1]; 1000 μg/ml): 84.7%; DIR B (disease incident rate 7 days after treatment), MV (mean value) ([1]; 1000 μg/ml, control 35.3): 5.4%; DIR B (disease incident rate 7 days after treatment), I ([1]; 1000 μg/ml): 3.4%; DIR B (disease incident rate 7 days after treatment), II ([1]; 1000 μg/ml): 8.7%; DIR B (disease incident rate 7 days after treatment), III ([1]; 1000 μg/ml): 4.2%; PR (prevention rate) [1, 3]: 69.5^c %; DIR B (disease incident rate 7 days after treatment), MV (mean value) [1, 4]: 5.8%; DIR B (disease incident rate 7 days after treatment), I [1, 3]: 5.9%; DIR B (disease incident rate 7 days after treatment), II [1, 3]: 5.1%; DIR B (disease incident rate 7 days after treatment), III [1, 3]: 5.1%; Growth inhibition, glomellera cingurata (glomellera cingurata): ++; Growth inhibition, damping-off of cucumber (damping-off of cucumber): ++; Growth inhibition, gray mold rot of strawberry [2]: +
3 | COc1ccc2cc3[n+](cc2c1OC)CCc1cc2c(cc1-3)OCO2.[I-] [berberine iodide] | 9.9% | 31.8% | 30.2% | 29.5% | 35.8% | 35.4% | 22.8% | 25.8% | 23.1% | 19.6% | 73.1% | 9.5% | 10.2% | 8.9% | 9.3% | 78.8% | 7.5% | 6.2% | 7.9% | 8.4% | PR (prevention rate) ([1]; 1000 μg/ml): 82.2%; DIR B (disease incident rate 7 days after treatment), MV (mean value) ([1]; 1000 μg/ml, control 35.3): 6.3%; DIR B (disease incident rate 7 days after treatment), I ([1]; 1000 μg/ml): 4.3%; DIR B (disease incident rate 7 days after treatment), II ([1]; 1000 μg/ml): 9.3%; DIR B (disease incident rate 7 days after treatment), III ([1]; 1000 μg/ml): 5.2%; PR (prevention rate) [1, 3]: 63.2%; DIR B (disease incident rate 7 days after treatment), MV (mean value) [1, 4]: 7.0%; DIR B (disease incident rate 7 days after treatment), I [1, 3]: 7.1%; DIR B (disease incident rate 7 days after treatment), II [1, 3]: 6.6%; DIR B (disease incident rate 7 days after treatment), III [1, 3]: 6.6%; Growth inhibition, glomellera cingurata (glomellera cingurata): +; Growth inhibition, damping-off of cucumber (damping-off of cucumber): +; Growth inhibition, gray mold rot of strawberry [2]: +
